Measurements as given in paper PMC4685510, “A Cell Biologist’s Field Guide to Aurora Kinase Inhibitors” (Frontiers in Oncology, 2015).

Columns and labels:
[1] = molecular target: T1, 363 human kinases (including Aurora A/B/C) (Homo sapiens, UniProt Q9UQB9); assay: biochemical; type: biochemical; conditions: Aurora C, [ATP] 30 µM
T1 sequence (Q9UQB9 1-309): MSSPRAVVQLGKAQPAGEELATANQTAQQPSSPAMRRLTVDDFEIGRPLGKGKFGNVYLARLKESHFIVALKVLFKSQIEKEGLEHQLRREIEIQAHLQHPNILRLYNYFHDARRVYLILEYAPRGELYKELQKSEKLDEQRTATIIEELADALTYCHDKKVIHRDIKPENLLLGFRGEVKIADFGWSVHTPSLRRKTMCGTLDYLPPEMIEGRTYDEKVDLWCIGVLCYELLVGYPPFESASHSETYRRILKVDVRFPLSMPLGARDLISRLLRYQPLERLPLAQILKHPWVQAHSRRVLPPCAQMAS
From the text: (§1) However, the Aurora A/B selectivity ratios derived from our in vitro and in vivo data can be compared to prioritize inhibitors.

[2] = system: HeLa cells; assay: Cytokinesis assay (live imaging, YFP-α-tubulin; H2B-RFP), HeLa; type: cell-based, human; conditions: Homo sapiens; HeLa; cytokinesis failure; read-out: Cytokinesis IC50
[3] = system: U2OS cells; assay: Cytokinesis assay (live imaging, YFP-α-tubulin; H2B-RFP), U2OS; type: cell-based; conditions: Homo sapiens, cytokinesis failure, read-out: Cytokinesis IC50
[4] = molecular target: Aurora A-TPX2; conditions: ref 61; read-out: Aurora A-TPX2 Ki (Published); cited from earlier work
[5] = molecular target: T2, 363 human kinases (including Aurora A/B/C) (Homo sapiens, UniProt P36888); assay: biochemical; type: biochemical; conditions: FLT3, [ATP] 50 µM
T2 sequence (P36888 27-993): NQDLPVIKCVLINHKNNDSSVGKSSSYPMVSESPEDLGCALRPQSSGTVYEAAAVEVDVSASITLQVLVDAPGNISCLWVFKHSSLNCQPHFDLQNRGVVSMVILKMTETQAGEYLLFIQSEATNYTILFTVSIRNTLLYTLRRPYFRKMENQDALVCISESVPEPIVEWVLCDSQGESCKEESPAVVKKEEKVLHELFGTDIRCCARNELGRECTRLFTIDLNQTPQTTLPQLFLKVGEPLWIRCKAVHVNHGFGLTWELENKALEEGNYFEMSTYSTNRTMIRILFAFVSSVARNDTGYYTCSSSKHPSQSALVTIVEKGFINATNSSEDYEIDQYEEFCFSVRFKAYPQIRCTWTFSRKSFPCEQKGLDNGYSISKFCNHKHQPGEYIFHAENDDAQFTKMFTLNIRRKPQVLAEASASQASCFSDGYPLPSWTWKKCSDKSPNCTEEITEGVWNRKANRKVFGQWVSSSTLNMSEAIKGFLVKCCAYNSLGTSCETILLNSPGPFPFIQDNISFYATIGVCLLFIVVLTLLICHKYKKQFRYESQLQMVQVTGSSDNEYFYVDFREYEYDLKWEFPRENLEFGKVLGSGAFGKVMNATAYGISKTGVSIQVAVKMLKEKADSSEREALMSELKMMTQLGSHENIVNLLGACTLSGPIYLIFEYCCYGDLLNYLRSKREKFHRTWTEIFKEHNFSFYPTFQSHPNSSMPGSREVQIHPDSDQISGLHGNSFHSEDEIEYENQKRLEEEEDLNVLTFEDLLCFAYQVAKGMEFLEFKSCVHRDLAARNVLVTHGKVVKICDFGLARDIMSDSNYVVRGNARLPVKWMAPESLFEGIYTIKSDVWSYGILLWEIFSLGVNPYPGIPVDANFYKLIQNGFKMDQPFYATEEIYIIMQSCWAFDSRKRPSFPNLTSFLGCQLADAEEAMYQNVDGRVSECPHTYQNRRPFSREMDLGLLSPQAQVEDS
From the text: as §1

[6] = molecular target: 363 human kinases (including Aurora A/B/C) (Homo sapiens, UniProt P48730); assay: biochemical; type: biochemical; conditions: CK1d, [ATP] 20 µM
From the text: as §1

[7] = molecular target: T3, 363 human kinases (including Aurora A/B/C) (Homo sapiens, UniProt Q15831); assay: biochemical; type: biochemical; conditions: LKB1
T3 sequence (Q15831 1-433): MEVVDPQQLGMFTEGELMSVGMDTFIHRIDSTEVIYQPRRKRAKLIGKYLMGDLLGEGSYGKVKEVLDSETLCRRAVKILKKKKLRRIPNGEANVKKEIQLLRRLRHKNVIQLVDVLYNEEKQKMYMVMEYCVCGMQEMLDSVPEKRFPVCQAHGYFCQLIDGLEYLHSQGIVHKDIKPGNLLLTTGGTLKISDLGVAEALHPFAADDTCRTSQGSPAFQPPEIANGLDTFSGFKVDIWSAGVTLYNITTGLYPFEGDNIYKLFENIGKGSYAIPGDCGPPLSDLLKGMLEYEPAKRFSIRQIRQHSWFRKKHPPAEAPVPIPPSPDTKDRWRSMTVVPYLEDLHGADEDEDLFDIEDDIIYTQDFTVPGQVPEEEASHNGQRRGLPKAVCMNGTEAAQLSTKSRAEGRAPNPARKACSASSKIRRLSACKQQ
From the text: as §1

[8] = system: HeLa cells; assay: G2 duration live imaging assay (GFP-PCNA; H2B-RFP), HeLa; type: cell-based, human
[9] = system: RPE1 cells; assay: G2 duration live imaging assay (GFP-PCNA; H2B-RFP), RPE1; type: cell-based; conditions: Homo sapiens, RPE-1, read-out: G2/M (G2 duration) IC50
[10] = molecular target: T4, Aurora A/TPX2^1–43 (Homo sapiens, UniProt O14965); assay: Aurora A/TPX2^1–43 kinase assay (ADP-Glo)
T4 sequence (O14965 1-403): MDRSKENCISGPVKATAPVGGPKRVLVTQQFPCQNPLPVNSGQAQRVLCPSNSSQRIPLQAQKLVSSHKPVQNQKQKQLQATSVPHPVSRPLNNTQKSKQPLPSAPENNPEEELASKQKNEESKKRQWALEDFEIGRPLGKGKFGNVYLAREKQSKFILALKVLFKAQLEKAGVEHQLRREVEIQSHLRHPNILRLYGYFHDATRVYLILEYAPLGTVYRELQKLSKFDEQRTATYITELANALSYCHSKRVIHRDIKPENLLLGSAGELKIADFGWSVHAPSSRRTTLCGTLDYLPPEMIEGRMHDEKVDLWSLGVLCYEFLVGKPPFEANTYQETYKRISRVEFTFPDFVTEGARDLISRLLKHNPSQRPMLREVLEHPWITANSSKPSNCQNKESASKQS
T4 sequence (Q9ULW0 1-43 partner limits assumed): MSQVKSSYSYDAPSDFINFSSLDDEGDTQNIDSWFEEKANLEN

[11] = 100 nM, read-out: % Enzyme Activity (relative to DMSO controls)
[12] = 500 nM, read-out: % Enzyme Activity (relative to DMSO controls)
[13] = Homo sapiens, read-out: G2/M (G2 duration) IC50, HeLa
[14] = read-out: G2/M (G2 duration) IC50

Chain of 363 human kinases (including Aurora A/B/C) (Homo sapiens, UniProt P48730) (P48730 whole entry): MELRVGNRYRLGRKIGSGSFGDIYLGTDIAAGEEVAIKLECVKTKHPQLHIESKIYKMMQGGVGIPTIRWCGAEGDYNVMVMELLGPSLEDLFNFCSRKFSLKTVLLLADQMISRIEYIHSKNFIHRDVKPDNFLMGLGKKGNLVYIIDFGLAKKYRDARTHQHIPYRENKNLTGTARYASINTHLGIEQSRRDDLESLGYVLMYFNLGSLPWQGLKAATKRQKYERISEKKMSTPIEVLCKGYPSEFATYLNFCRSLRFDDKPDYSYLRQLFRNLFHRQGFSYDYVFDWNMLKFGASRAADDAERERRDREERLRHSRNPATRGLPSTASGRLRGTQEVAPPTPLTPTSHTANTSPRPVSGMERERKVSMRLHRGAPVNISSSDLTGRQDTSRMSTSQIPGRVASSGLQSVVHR

For `CCn1cc(-c2ccnc3[nH]c(-c4cccc(CN(C)C)c4)cc23)c(-c2ccc(NC(=O)N(C)C)cc2)n1` [GSK1070916], which remaining activity at 0.1 µM [1, 11] is on record?
The remaining activity at 0.1 µM was 39.7%.

And the IC50 [2]?
Its IC50 is 6 nM.

What about the IC50 [3] of the same compound?
Its IC50 is 6 nM.

And the Ki [4]?
Its Ki is 492 nM.

What does the source list for `O=C(c1cccc(Cl)c1F)N1CCN(Cc2cccc(Nc3nccs3)n2)CC1` [MK-8745]?
% Enzyme Activity (relative to DMSO controls) ([5]; 500 nM): 88.10%; remaining activity at 0.5 µM [5, 12]: 88.4%; % Enzyme Activity (relative to DMSO controls) ([6]; 500 nM): 85.06%; remaining activity at 0.5 µM [6, 12]: 85.5%; % Enzyme Activity (relative to DMSO controls) ([7]; 500 nM): 25.85%; remaining activity at 0.5 µM [7, 12]: 26.1%; % Enzyme Activity (relative to DMSO controls) ([1]; 500 nM): 46.69%; remaining activity at 0.5 µM [1, 12]: 47.4%; IC50 [8, 13]: 600 to 800 nM; IC50 [8, 14]: 596 nM; IC50 [9]: 755 nM; IC50 [10]: 0.83 nM; Ki ([10]; Aurora A TPX2^1-43 Ki (example dataset, Figure 2D), calculated from the example IC50): 0.36 nM; Ki ([10]; Aurora A-TPX2^1–43 Ki Mean ± SD, [ATP] = Km(ATP) (3 μM), 40 nM TPX2^1–43): 0.41 ± 0.06 nM; Selectivity ratio Aur A-TPX2^1–43 versus Aur B-INCENP^783–918 ([10]; fold difference in potency calculated by dividing Ki values): 162 fold

Which remaining activity at 0.1 µM [5, 11] does the source give for `O=C(O)[C@]1(Cc2cccc(Nc3nccs3)n2)CC[C@@H](Oc2cccc(Cl)c2F)CC1` [MK-5108] here?
The remaining activity at 0.1 µM was 58.2%.

What about the remaining activity at 0.5 µM [5, 12] of the same compound?
Its remaining activity at 0.5 µM is 30.9%.

And the remaining activity at 0.1 µM [6, 11]?
Its remaining activity at 0.1 µM is 100%.

And the remaining activity at 0.5 µM [6, 12]?
Its remaining activity at 0.5 µM is 86.8%.

And the remaining activity at 0.1 µM [7, 11]?
Its remaining activity at 0.1 µM is 76.6%.

What about the remaining activity at 0.5 µM [7, 12] of the same compound?
Its remaining activity at 0.5 µM is 47.4%.

And the IC50 [8, 13]?
Its IC50 is 600 to 800 nM.

And the IC50 [8, 14]?
The IC50 was 816 nM.

And the IC50 [9]?
The IC50 was 877 nM.
